Test results published in ChEMBL document CHEMBL4346695, “Thiophenol-formaldehyde triazole causes apoptosis induction in ovary cancer cells and prevents tumor growth formation in mice model” (2019).
Activity calls are given as the source filed them. The calls are words filed in the database; no cut-off is given here.

Columns and labels:
[1] = test system: Caov-3 cell line; test: Inhibition of metastasis in human Caov3 cells assessed as decrease in MMP9 expression level at 0.25 uM incubated for 48 hrs by Western blot analysis; type: functional, cell-based
[2] = test system: Caov-3 cell line; test: (§1) Antimetastasis activity against human Caov3 cells xenografted in BALB/c nude mouse assessed as reduction in vWF expression in peritoneal lesions at 10 mg/kg, ip incubated for 1 hr post tumor implantation and measured after 20 days by DAB and hematoxylin staining based immunohistochemical analysis relative to control; type: functional; parameters: scale not given: the % may be the effect or the level left
[3] = test system: Caov-3 cell line; test: Antiinvasive activity in human Caov3 cells at 1.0 uM incubated for 48 hrs using hematoxylin by microscopy-based transwell assay relative to control; type: functional
[4] = test system: Caov-3 cell line; test: Inhibition of metastasis in human Caov3 cells assessed as decrease in FAK activation level at 0.5 uM incubated for 48 hrs by Western blot analysis; type: functional, cell-based
[5] = test system: Caov-3 cell line; test: Induction of apoptosis in human Caov3 cells assessed as formation of apoptotic nuclei at 1.0 uM incubated for 48 hrs by Hoechst 33342 staining based fluorescent microscopic method relative to control; type: functional
[6] = test system: Caov-3 cell line; test: Growth inhibition of human Caov3 cells at 0.5 uM incubated for 48 hrs by MTT assay; type: functional, cell-based
[7] = test system: Caov-4; test: Growth inhibition of human Caov4 cells at 0.5 uM incubated for 48 hrs by MTT assay; type: functional, cell-based
[8] = test system: Caov-3 cell line; test: Inhibition of metastasis in human Caov3 cells assessed as decrease in MMP2 expression level at 0.25 uM incubated for 48 hrs by Western blot analysis; type: functional, cell-based
[9] = test system: Caov-3 cell line; test: Growth inhibition of human Caov3 cells at 0.25 uM incubated for 48 hrs by MTT assay; type: functional, cell-based
[10] = Growth inhibition of human ES2 cells at 2 uM incubated for 48 hrs by MTT assay relative to control; type: functional; conditions: ES-2, 48 h, read-out: GI
[11] = test system: Caov-3 cell line; test: as §1, with “infiltration of macrophages” for “vWF expression”, “intestinal” for “peritoneal”, “5” for “10”, “analysis” for “analysis relative to control”; type: functional, organism-based
[12] = test system: Caov-3 cell line; test: Antitumor activity against human Caov3 cells xenografted in BALB/c nude mouse assessed as tumor size at 10 mg/kg, ip incubated for 1 hr post tumor implantation and measured after 20 days (reference value: 1956 +/- 367 mm3); type: functional
[13] = test system: Caov-3 cell line; test: Antiinvasive activity in human Caov3 cells at 2.0 uM incubated for 48 hrs using hematoxylin by microscopy-based transwell assay relative to control; type: functional
[14] = test system: Caov-3 cell line; test: Induction of apoptosis in human Caov3 cells at 0.25 to 2.0 uM incubated for 48 hrs by Hoechst 33342 staining based fluorescent microscopic method; type: functional, cell-based
[15] = test system: Caov-3 cell line; test: Induction of apoptosis in human Caov3 cells assessed as formation of apoptotic nuclei at 2.0 uM incubated for 48 hrs by Hoechst 33342 staining based fluorescent microscopic method; type: functional, cell-based
[16] = test system: Caov-3 cell line; test: Induction of Cell cycle arrest in human Caov3 cells assessed as accumulation at G0/G1 phase at 1.5 uM incubated for 48 hrs by propidium iodide staining based flow cytometric analysis (reference value: 57.77%); type: functional
[17] = test system: Caov-4; test: Growth inhibition of human Caov4 cells incubated for 48 hrs by MTT assay; type: functional, cell-based
[18] = test system: Caov-3 cell line; test: Antimetastasis activity against human Caov3 cells xenografted in BALB/c nude mouse assessed as reduction in vWF expression in intestinal lesions at 5 mg/kg, ip incubated for 1 hr post tumor implantation and measured after 20 days by DAB and hematoxylin staining based immunohistochemical analysis; type: functional, organism-based
[19] = test system: Caov-3 cell line; test: Antimetastasis activity against human Caov3 cells xenografted in BALB/c nude mouse assessed as reduction of metastasis in intestine at 10 mg/kg, ip incubated for 1 hr post tumor implantation and measured after 20 days by H and E staining-based assay; type: functional, organism-based
[20] = test system: Caov-3 cell line; test: Induction of Cell cycle arrest in human Caov3 cells assessed as accumulation at G0/G1 phase at 1 uM incubated for 48 hrs by propidium iodide staining based flow cytometric analysis (reference value: 57.77%); type: functional
[21] = test system: Caov-3 cell line; test: Antiinvasive activity in human Caov3 cells at 0.5 uM incubated for 48 hrs using hematoxylin by microscopy-based transwell assay relative to control; type: functional
[22] = test system: Caov-3 cell line; test: Induction of Cell cycle arrest in human Caov3 cells assessed as accumulation at G2/M phase at 2 uM incubated for 48 hrs by propidium iodide staining based flow cytometric analysis (reference value: 22.68%); type: functional
[23] = test system: Caov-4; test: Growth inhibition of human Caov4 cells at 0.25 uM incubated for 48 hrs by MTT assay; type: functional, cell-based
[24] = species on record: Homo sapiens; test: Growth inhibition of human ES2 cells at 0.5 uM incubated for 48 hrs by MTT assay; type: functional
[25] = test system: Caov-3 cell line; test: Inhibition of cell migration in human Caov3 cells assessed as decrease in migration potential at 0.5 to 2.0 uM incubated for 48 hrs by wound healing assay (reference value: 89.65%); type: functional
[26] = test system: Caov-3 cell line; test: Antimetastasis activity against human Caov3 cells xenografted in BALB/c nude mouse assessed as reduction of metastasis in peritoneal cavity at 10 mg/kg, ip incubated for 1 hr post tumor implantation and measured after 20 days by H and E staining-based assay; type: functional, organism-based
[27] = test system: Caov-3 cell line; test: as §1, with “infiltration of macrophages” for “vWF expression”, “lungs” for “peritoneal”; type: functional; parameters: scale not given: the % may be the effect or the level left
[28] = test system: Caov-3 cell line; test: Antimetastasis activity against human Caov3 cells xenografted in BALB/c nude mouse assessed as reduction of metastasis in liver at 10 mg/kg, ip incubated for 1 hr post tumor implantation and measured after 20 days by H and E staining-based assay; type: functional, organism-based
[29] = test system: Caov-3 cell line; test: Antiinvasive activity in human Caov3 cells at 0.25 uM incubated for 48 hrs using hematoxylin by microscopy-based transwell assay; type: functional, cell-based
[30] = test system: Caov-3 cell line; test: Antimetastasis activity against human Caov3 cells xenografted in BALB/c nude mouse assessed as reduction in vWF expression in liver lesions at 5 mg/kg, ip incubated for 1 hr post tumor implantation and measured after 20 days by DAB and hematoxylin staining based immunohistochemical analysis; type: functional, organism-based
[31] = test system: Caov-3 cell line; test: as §1, with “lungs” for “peritoneal”; type: functional; parameters: scale not given: the % may be the effect or the level left

Fc1ccccc1-n1cc(COCc2ccccc2S)nn1
inhibition [1]: inactive
Activity [2]: 5%
Activity [3]: 67.76%
inhibition [4]: Active
Activity [5]: 21.54%
growth inhibition (GI) [6]: Active
growth inhibition (GI) [7]: Active
inhibition [8]: inactive
growth inhibition (GI) [9]: inactive
inhibition of growth at 2 µM [10]: 29%
Activity [11]: inactive
Activity [12]: 213.34 mm3
Activity [13]: 8.62%
Activity [14]: Active
Activity [15]: Active
Activity [16]: 64.57%
growth inhibition (GI) [17]: Dose-dependent effect
Activity [18]: inactive
Activity [19]: Active
Activity [20]: 61.63%
Activity [21]: 84.54%
Activity [22]: 18.08%
growth inhibition (GI) [23]: inactive
growth inhibition (GI) [24]: Active
inhibition (INH) [25]: 6.43%
Activity [26]: Active
Activity [27]: 9%
Activity [28]: Active
Activity [29]: inactive
Activity [30]: inactive
Activity [31]: 8%
